Measurements taken from publication PMC8365602 (Journal of Medicinal Chemistry, 2021).

Key:
[1] = test system: monocytes; experiment: Monocyte membrane integrity (LDH release); format: cell-based, human; details: higher concentrations (>1 μM)
Description: (§1) To measure mitochondrial dehydrogenase activity, 3-(4,5-dimethylthiazol-2-yl)-2,5-diphenyltetrazolium bromide (MTT) (20 μL, 5 mg/mL, Sigma-Aldrich) was added to PBMC. After 4 h in the darkness, the formed formazan product was solubilized (10% SDS in 20 mM HCl) and the absorbance was read at 570 nm using a Multiskan Spectrum microplate reader (Thermo Fisher Scientific).[81]
LDH release was measured in monocytes using a CytoTox 96 nonradioactive cytotoxicity assay (Promega, Madison, WI) according to the manufacturer’s instruction using Triton X-100 (0.8%) as the maximum LDH release control.

[2] = Hepatic metabolism in human liver-on-chip; format: in vitro ADME; details: 1 μM, 48 h
Description: LCMs, 27a, and 27a metabolites were extracted from PMNL, medium of the liver-on-chip, murine plasma, peritoneal exudate, or homogenized murine tissue as described.[6] In brief, PBS pH 7.4, methanol, chloroform, and saline (final ratio: 14:34:35:17) were successively added together with 13d (9 pmol) as the internal standard. The organic layer was evaporated, and the extracted LCMs were dissolved in methanol.
LCMs, 27a, and 27a metabolites were separated at a flow rate of 0.8 mL/min and a column temperature of 45 °C, with acetonitrile/H2O (10:90) as mobile phase A and acetonitrile as mobile phase B, both acidified with 0.07% formic acid. The linear gradient from A/B = 50:50 to 0:100 within 4.5 min was followed by isocratic elution with A/B = 0:100 for 1 min. MS parameters were adjusted according to Pein et al.[6] and as detailed in Table S3. Signal intensities were normalized to the internal standard 13d, and concentrations were calculated using external calibration curves as specified in Table S3. […]
The medium between the two membranes was renewed, and the vehicle (DMSO), 12a, or 27a were added. […] 12a, 27a, and their metabolites were extracted from the combined fractions and analyzed by UPLC-MS/MS.[6]

[3] = target: single mutant Arg101Asp 5-LOX (R101D) (Homo sapiens, UniProt P09917, R102D); experiment: Cell-free activity of 5-LOX single mutant (R101D)
Description: (§2) Human recombinant 5-LOX was expressed in E. coli Bl21 (DE3) cells that were transformed with pT3–5LOX (wt 5-LOX), 5-LOX_3W (triple mutation of Trp102Ala/Trp13Ala/Trp75Ala), or 5-LOX_R (single mutant of the Arg101Asp plasmid) and purified on an ATP-agarose column (Econo-Pac, Bio-Rad, Hercules, CA) by affinity chromatography.[6],[75]
(§3) Purified 5-LOX (0.5 μg in PBS pH 7.4 containing 1 mM EDTA and 1 mM ATP) was preincubated with the vehicle (DMSO) or test compounds for 10 min and prewarmed at 37 °C.

[4] = Radical scavenging activity (DPPH); details: DPPH
Description: Compound 27a was incubated with 2,2-diphenyl-1-picrylhydrazyl (DPPH, Sigma-Aldrich; 50 mM) in ethanol for 30 min, and the absorbance was measured at 520 nm using a Multiskan Spectrum Microplate Reader (Thermo Fisher Scientific).[72] The positive control ascorbic acid (Sigma-Aldrich; 25 μM) scavenged DPPH radicals by 36 ± 11%.

[5] = target: T1, human recombinant sEH (Homo sapiens, UniProt P34913); experiment: sEH activity; format: biochemical
T1 construct: made in house; host or cells: Sf9 insect cells (recombinant baculovirus)
Description: Human recombinant sEH was expressed in Sf9 insect cells and purified by affinity chromatography.[83] Briefly, Sf9 cells were infected with a recombinant baculovirus and lysed after 72 h in 50 mM NaHPO4 pH 8, 300 mM NaCl, 10% glycerol, 1 mM EDTA, 1 mM phenylmethanesulfonyl fluoride, 10 μg/mL leupeptin, and 60 μg/mL STI by sonication (3 × 10 s, 4 °C). […] Elution with 4-fluorochalcone oxide in PBS pH 7.4 with 1 mM dithiothreitol and 1 mM EDTA yielded sEH, which was dialyzed and concentrated.
Purified sEH (60 ng) in 25 mM Tris HCl pH 7 with 0.1 mg/mL bovine serum albumin (BSA) was preincubated with the vehicle (DMSO) or 27a for 10 min at room temperature. The sEH substrate PHOME (50 μM, Cayman Chemicals) was added to start the enzymatic reaction, which was stopped after 60 min in darkness by addition of ZnSO4 (200 mM). The formation of the fluorescent product 6-methoxynaphtaldehyde was measured using a NOVOstar fluorescence microplate reader (BMG Labtech, Ortenberg, Germany), with excitation at 330 and emission at 465 nm.

[6] = test system: PBMC; experiment: PBMC viability (MTT, mitochondrial dehydrogenase activity); format: cell-based, human; details: ≤1 μM, 24 h
Description: as §1

[7] = target: triple mutant Trp13Ala, Trp75Ala, and Trp102Ala 5-LOX (3W) (Homo sapiens, UniProt P09917, W103A/W14A/W76A); experiment: Cell-free activity of 5-LOX triple mutant (3W)
Description: as §2, §3

[8] = test system: human keratinocytes; experiment: Keratinocyte cytotoxicity (MTT) in the RHE model; format: cell-based; details: MTT assay
Description: Compound 27a was evaluated in an inflammatory model of RHE by Synelvia S.A.S. (Labège, France) according to the company’s protocol.[88] In brief, primary human keratinocytes were used to generate RHE on polycarbonate filters as described.[88] RHE was allowed to acclimate for 6 days (5% CO2, 37 °C) prior to incubation with 27a (5, 10, 25 μM), dexamethasone (1 μM), or vehicle (0.05% DMSO), and a proinflammatory cytokine cocktail for 4 days at 5% CO2 and 37 °C. The culture medium including compounds and cytokines was changed on days 6, 8, and 10. Each culture condition was repeated three times. Acute cytotoxicity of 27a was excluded at the concentrations studied within 24 h by measuring the mitochondrial dehydrogenase activity (MTT assay).

T1 sequence (P34913 whole entry): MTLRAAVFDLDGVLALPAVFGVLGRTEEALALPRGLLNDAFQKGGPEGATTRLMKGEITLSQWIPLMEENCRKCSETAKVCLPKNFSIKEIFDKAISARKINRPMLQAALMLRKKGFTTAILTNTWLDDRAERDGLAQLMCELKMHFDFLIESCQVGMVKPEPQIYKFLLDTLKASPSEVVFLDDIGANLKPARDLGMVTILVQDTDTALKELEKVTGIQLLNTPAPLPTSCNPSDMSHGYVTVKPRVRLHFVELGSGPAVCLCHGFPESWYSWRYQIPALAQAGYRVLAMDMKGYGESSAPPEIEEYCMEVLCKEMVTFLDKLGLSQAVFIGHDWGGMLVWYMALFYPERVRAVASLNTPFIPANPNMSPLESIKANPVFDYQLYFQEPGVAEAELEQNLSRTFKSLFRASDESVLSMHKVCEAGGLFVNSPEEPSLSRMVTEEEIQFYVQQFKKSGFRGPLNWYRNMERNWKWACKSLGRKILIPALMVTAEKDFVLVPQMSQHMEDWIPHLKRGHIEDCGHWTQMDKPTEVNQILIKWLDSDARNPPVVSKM
Chain of triple mutant Trp13Ala, Trp75Ala, and Trp102Ala 5-LOX (3W) (P09917 whole entry W14A/W76A/W103A): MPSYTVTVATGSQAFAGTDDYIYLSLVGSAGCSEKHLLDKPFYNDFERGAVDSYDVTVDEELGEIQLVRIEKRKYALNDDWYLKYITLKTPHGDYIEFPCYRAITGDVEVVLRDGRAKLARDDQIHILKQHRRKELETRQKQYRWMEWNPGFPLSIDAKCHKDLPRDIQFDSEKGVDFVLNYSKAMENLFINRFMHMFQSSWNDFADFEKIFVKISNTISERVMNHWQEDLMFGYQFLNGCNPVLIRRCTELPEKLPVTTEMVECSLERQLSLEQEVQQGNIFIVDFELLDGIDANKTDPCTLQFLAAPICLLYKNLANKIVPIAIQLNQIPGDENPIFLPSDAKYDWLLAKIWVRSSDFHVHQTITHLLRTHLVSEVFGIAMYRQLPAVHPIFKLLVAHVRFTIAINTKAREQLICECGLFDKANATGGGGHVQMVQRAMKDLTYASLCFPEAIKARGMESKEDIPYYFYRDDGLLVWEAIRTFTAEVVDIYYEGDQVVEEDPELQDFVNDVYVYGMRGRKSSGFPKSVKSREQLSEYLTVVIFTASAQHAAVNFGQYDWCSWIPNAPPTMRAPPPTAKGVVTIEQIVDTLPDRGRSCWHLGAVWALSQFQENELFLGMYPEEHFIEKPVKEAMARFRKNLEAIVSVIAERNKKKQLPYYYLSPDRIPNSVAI
Chain of single mutant Arg101Asp 5-LOX (R101D) (P09917 whole entry R102D): as the sequence (P09917 whole entry W14A/W76A/W103A) above, with A14W, A76W, R102D, A103W counted along it

**Q.** With `C/C(=C\CC/C(C)=C/CC[C@]1(C)CCc2c(C)c(O)c(C)c(C)c2O1)CCC=C(CO)CO` [Compound 27a, α-amplexichromanol] as the compound, how does the “LDH release from monocytes at higher concentrations” value [1] read?
**A.** Its value is “induced a rapid release of lactate dehydrogenase”.

**Q.** And the Hepatic metabolism [2]?
**A.** The Hepatic metabolism was “preferentially conjugated with sulfate or oxidized at 12a′ or 13′ to the respective ω-carboxylic acid”.

**Q.** And the “Effect of Arg101Asp replacement on 5-LOX inhibition” value [3]?
**A.** The value was “failed to affect 5-LOX inhibition”.

**Q.** What about the “Concentrations with antioxidative properties (radical scavenging) versus 5-LOX inhibition” value [4] of the same compound?
**A.** The value was “exceed those that effectively inhibit 5-LOX”.

**Q.** What about the sEH inhibition [5] of the same compound?
**A.** Its sEH inhibition is “not substantially inhibited”.

**Q.** What about the “Mitochondrial dehydrogenase activity in PBMC (cell viability)” value [6] of the same compound?
**A.** Its value is “impaired neither mitochondrial dehydrogenase activity”.

**Q.** And the “Effect of Trp102Ala/Trp13Ala/Trp75Ala triple mutation on 5-LOX inhibition” value [7]?
**A.** The value was “failed to affect 5-LOX inhibition”.

**Q.** And the “Cytotoxic effects on human keratinocytes” value [8]?
**A.** The value was “excluded”.
